This note sets out measurements from PMC6372667 (Experimental & Molecular Medicine, 2019).

Where two headings read alike, the source gives them in different places. Where only a bound is given, the exact number is not on record here.

One data set concerns the target T1, Electric eel AChE (Electrophorus electricus, UniProt O42275).
T1 construct: purchased Sigma-Aldrich Co
Put plainly: In vitro cholinesterase enzyme assay (Ellman), AChE. It counts as biochemical. Background: Ellman's reagent forms a yellow product with free thiols.

Data set [1] relates to SH-SY5Y, C6, NIH3T3 and B16F10 cell lines. Put plainly: MTT cytotoxicity assay, all cell lines tested. Format: cell-based. The protocol: (§1) Cytotoxicity was assessed using the MTT assay. Briefly, the cells were seeded into a 96-well plate at a density of 1×10^5 cells per well in 100 µL of corresponding media and incubated at 37 °C in an incubator under 5% CO2 tension for 24 h. The culture media were then replaced with 100 µL of fresh serum-free media in the presence of varied concentrations of pterosin derivatives, and cells were incubated for an additional 24 h. The control was treated with an equal amount of DMSO present in the assay for a 5 mM concentration. Then, 100 µL of MTT solution (0.5 mg/mL in Phosphate Buffered Saline (PBS)) was added to each culture. To measure the proportion of surviving cells, the media were replaced with 100 µL of DMSO 2 h after the administration of MTT solution. The absorbance was measured at 570 nm using a spectrophotometric plate reader (Molecular Devices, Sunnyvale, CA, USA).
(Tetrazolium dyes change colour on reduction, which living cells bring about.)

Another data set concerns the target T2, horse serum BChE (Equus caballus, UniProt P81908).
T2 construct: horse serum BChE (EC 3.1.1.8); purchased Sigma-Aldrich Co; host or cells: horse serum
Put plainly: In vitro cholinesterase enzyme assay (Ellman), BChE. Format: biochemical. From the text: (§2) BACE1 (human recombinant β-secretase) ([…]) and the BACE1 FRET (fluorescence resonance energy transfer) assay kit Red were purchased from ThermoFisher Scientific (P2985; Waltham, MA, USA). […] For the cell culture experiment, Dulbecco’s modified Eagle’s medium (DMEM), Opti-MEM, fetal bovine serum (FBS), and penicillin/streptomycin were obtained from Capricorn Scientific (Ebsdorfergrund, Germany). β-secretase inhibitor III (β-SI) was purchased from Calbiochem (Darmstadt, Germany). The protease inhibitor mixture (a mixture of AEBSF, pepstatin A, E-64, bestain, leupeptin, and aprotinin) was purchased from Sigma-Aldrich (St. Louis, MO, USA). Enzyme-linked immunosorbent assay (ELISA) kits for Aβ40 and Aβ42 were obtained from IBL (Kunma, Japan). All chemicals and solvents used were reagent grade, purchased from commercial sources, and used as received.
The inhibitory activities of pterosin derivatives against cholinesterases were measured using the method developed by Ellman et al.[32]. The reaction mixture contained 140 μL of sodium phosphate buffer (pH 8.0), 20 μL of test sample solution (final concentration of the compound 100 μM), and 20 μL of AChE or BChE solution, mixed and incubated for 15 min at room temperature. […] The reactions were initiated following the addition of 10 μL of DTNB and 10 μL of acetyl thiocholine iodide for the AChE assay or butyryl thiocholine chloride for the BChE assay in 96-well microplates, which were incubated for 15 min.

The next data set can be described thus: in vitro. Format: in vitro ADME. The note with it: for BBB permeation class: classified by Pe, given in words. How it is done:
PAMPA (parallel artificial membrane permeation assay) was used as a high-throughput assay to predict BBB permeation. Porcine polar brain lipid (PBL) was used as an artificial membrane to predict BBB permeation. Initially, the test compound was dissolved in DMSO at 5 mg/mL. This compound stock solution (10 µL) was diluted 200-fold in a universal buffer at pH 7.4 and mixed with a multi 8-channel pipette to obtain the secondary stock solution (final concentration 25 µg/mL). The secondary stock solution (200 µL) was placed in the donor wells. The filter membrane was coated with PBL in dodecane (4 mL volume of 20 mg/mL PBL in dodecane), and 5 µL of BBB-1 lipid solution was spread on PBL by pipette. The acceptor well was filled with […] of Acceptor Sink Buffer. The acceptor filter plate was cautiously positioned on the donor plate to assemble a “sandwich” (comprising an aqueous acceptor, artificial lipid membrane and aqueous donor with test compound on the top, middle and bottom, respectively). The test compound diffuses from the donor well to the acceptor well through the lipid membrane. After 4 h of incubation at pH 7.4 and 25 °C, the concentration of the compound in the acceptor, donor, reference and blank wells was estimated with a UV plate reader, Epoch Microplate Spectrophotometer (BioTek Instruments, Inc., Winooski, VT, USA). […] Samples were analyzed in quadruplets, and the average of the four runs was reported. To monitor the consistency of the analysis set, quality control standards were run with each sample set.
PAMPA-BBB, an in vitro artificial membrane permeability assay for the BBB, is one of the most reliable physicochemical screening tools in the early stage discovery of CNS-targeted drugs. The PAMPA-BBB system models the transcellular passive diffusion of chemicals across the BBB and measures strictly passive transport mechanisms via an artificial lipid membrane on effective permeability (Pe, cm/s).

Data set [2] addresses BACE1 (human recombinant β-secretase) (Homo sapiens, UniProt P56817). As to the kind of experiment: In vitro BACE1 FRET enzyme assay. It counts as biochemical. The note with it: mean ± S.D. of three experiments.
Description: as §2
The BACE1 FRET assay was carried out according to the manufacturer’s instructions with slight modifications as previously described. The assay was performed in a […] black plate using a multi-pipette.

Another data set relates to C6 rat glial cells. As to the kind of experiment: MTT cytotoxicity assay, C6. Format: cell-based. Conditions: 24 h. The protocol:
as §1

The term IC50 denotes the midpoint of a concentration-inhibition curve.

T2 sequence (P81908 whole entry): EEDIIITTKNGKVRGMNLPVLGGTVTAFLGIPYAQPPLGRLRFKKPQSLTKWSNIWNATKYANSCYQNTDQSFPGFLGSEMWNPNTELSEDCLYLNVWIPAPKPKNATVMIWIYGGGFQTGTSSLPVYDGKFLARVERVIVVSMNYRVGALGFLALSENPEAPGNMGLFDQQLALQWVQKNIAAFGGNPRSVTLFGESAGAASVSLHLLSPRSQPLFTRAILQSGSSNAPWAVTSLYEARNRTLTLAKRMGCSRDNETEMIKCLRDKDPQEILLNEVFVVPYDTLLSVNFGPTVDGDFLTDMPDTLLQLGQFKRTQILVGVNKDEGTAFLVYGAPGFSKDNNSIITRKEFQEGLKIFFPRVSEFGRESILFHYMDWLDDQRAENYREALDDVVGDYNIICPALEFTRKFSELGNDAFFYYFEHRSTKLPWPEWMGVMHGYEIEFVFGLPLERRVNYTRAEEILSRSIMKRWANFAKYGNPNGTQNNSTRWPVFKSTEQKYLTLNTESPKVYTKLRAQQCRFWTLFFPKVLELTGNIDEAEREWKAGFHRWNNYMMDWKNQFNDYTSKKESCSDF
T1 sequence (O42275 24-633): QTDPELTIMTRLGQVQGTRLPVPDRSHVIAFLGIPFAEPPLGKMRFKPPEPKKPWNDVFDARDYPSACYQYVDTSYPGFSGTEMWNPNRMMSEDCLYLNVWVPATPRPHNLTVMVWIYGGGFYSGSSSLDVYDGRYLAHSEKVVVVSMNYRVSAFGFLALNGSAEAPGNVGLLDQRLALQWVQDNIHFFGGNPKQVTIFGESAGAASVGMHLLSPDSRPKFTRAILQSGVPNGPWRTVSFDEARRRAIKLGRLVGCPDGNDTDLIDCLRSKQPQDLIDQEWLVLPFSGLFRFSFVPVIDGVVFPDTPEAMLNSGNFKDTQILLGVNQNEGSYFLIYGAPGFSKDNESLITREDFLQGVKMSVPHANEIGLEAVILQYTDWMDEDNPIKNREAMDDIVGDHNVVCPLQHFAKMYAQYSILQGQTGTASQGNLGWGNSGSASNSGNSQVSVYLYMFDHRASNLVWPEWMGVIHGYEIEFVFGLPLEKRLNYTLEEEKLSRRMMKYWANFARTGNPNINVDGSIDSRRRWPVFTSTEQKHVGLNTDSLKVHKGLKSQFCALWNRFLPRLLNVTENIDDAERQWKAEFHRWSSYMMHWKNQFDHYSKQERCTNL
Chain of BACE1 (human recombinant β-secretase) (P56817 46-501): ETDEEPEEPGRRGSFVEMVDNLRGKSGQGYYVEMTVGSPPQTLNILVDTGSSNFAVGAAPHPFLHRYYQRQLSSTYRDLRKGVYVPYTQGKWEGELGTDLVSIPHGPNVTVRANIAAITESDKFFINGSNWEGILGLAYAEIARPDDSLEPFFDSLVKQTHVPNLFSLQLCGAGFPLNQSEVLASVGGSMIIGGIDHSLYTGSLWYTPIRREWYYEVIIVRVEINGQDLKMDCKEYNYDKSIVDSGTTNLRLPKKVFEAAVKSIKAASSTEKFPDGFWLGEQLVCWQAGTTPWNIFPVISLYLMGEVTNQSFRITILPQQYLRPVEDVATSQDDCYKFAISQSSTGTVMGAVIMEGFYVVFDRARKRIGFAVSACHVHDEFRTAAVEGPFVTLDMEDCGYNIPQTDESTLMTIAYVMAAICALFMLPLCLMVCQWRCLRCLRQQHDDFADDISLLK

`Cc1cc2c(c(C)c1CCOC1OC(CO)C(O)C(O)C1O)C(=O)C(C)C2O` [(2R,3R)-Pteroside C, (2R,3R)-pteroside C]: the IC50 at Electric eel AChE (mean ± S.D. of three experiments, read-out: IC50 AChE) worked out at 3.77 ± 0.38 µM; at horse serum BChE (mean ± S.D. of three experiments, read-out: IC50 BChE), 5.29 ± 0.82 µM; in data set [2], 9.74 ± 1.9 µM. The “LD50, cell lines tested” value in data set [1] is “above 5 mM”. The BBB permeation class result in “in vitro” (PAMPA-BBB) is reported as “very low BBB permeability”. Moreover, the “LD50 Based on MTT Assay, C6” value with C6 rat glial cells is listed as >5,000 µM.
As to `Cc1cc2c(c(C)c1CCO)C(=O)[C@H](C)C2` [(2R)-Pterosin B, (2R)-pterosin B], the half-inhibitory concentration (IC50) against Electric eel AChE came to 16.2 ± 1 µM; against horse serum BChE, 48.1 ± 0.59 µM; in data set [2], 29.6 ± 3.5 µM. In addition, on Electric eel AChE (ratio of IC50), the “AChE-inhibitory activity fold lower than berberine” value is recorded as “approximately 40 fold”. In addition, the “LD50, cell lines tested” value in data set [1] is reported as “above 5 mM”. Also, the “BChE-inhibitory activity fold lower than berberine” value at horse serum BChE (ratio of IC50) is recorded as roughly 15 fold. The “Pe fold higher than verapamil” value in “in vitro” (PAMPA-BBB) is 1.7 fold. Besides, in “in vitro” (PAMPA-BBB), the BBB permeation class entry is listed as “high BBB permeation”. Moreover, the “Pe fold higher than quercetin” value in the data set “in vitro” (from log Pe −4.22 versus literature log Pe of quercetin) is reported as “approximately 600 fold”. Further, the “Pe fold higher than berberine” value in the data set “in vitro” (from log Pe −4.22 versus log Pe −5.8 of berberine) is “approximately 37 fold”. The Papp at 4 h, 25 µg/mL in “in vitro” (pig, PAMPA, 4 h, pH 7.4, 25 °C, mean ± SD of quadruple experiments, read-out: PAMPA-BBB permeability Pe) was 60.3 ± 9.8 ×10⁻⁶ cm/s. Also, in the data set with C6 rat glial cells, the “LD50 Based on MTT Assay, C6” value is listed as >5,000 µM.
